Literature values in patent publication US20250064782A1, “Methods of Treating Substance Use Disorders Using 5-MeO-DMT” (Journey Colab Corp., priority 2021, published 2025).

Columns and labels:
IL-6 = conditions: Uthaug et al. 2020
[1] = rodents; Shen et al. 2011, Ermakova et al. 2022

## COc1ccc2[nH]cc(CCN(C)C)c2c1 [5-MeO-DMT, 5-methoxy-N,N-dimethyltryptamine]
IL-6
  IL-6 levels post-administration: significantly decrease IL-6 levels
[1]
  pharmacokinetics of 5-MeO-DMT: Non-linear pharmacokinetics
